# Measured values: paper PMC7219108, “Pisum sativum Defensin 1 Eradicates Mouse Metastatic Lung Nodules from B16F10 Melanoma Cells” (International Journal of Molecular Sciences, 2020)
# Legend:
# [1] = system: B16F10 melanoma cells in C57BL/6 mice; assay: Experimental B16F10 melanoma lung metastasis, nodule count; assay type: in vivo; details: for Lung nodules: day 21, mean ± SEM
# Excerpt: Figure 6 Protective effects of Psd1 on a model of experimental lung metastasis in vivo. B16F10 mouse melanoma tumors were established by intravenous injection of 2.5 × 10^5 B16F10 cells into C57BL/6 mice. (A) After 21 days, mice from each experimental group were sacrificed, and the number of visible lung metastatic nodules was quantified. Treatment of the animals inoculated with melanoma cells plus Psd1 caused a dose-dependent reduction in the number of lung metastases. Black lines represent the mean ± SEM of two independent experiments analyzed by one-way ANOVA and Bonferroni’s multiple comparison test. **** p < 0.0001 B16F10 vs. phosphate buffer solution (PBS); **** p < 0.0001 B16F10 vs. Psd1 1 mg/kg; **** p < 0.0001 B16F10 vs. just Psd1 1 mg/kg (without B16F10 cells); *** p < 0.001 B16F10 vs. Psd1 3 mg/kg; * p < 0.05 B16F10 vs. Psd1 0.5 mg/kg. (B) Representative images of lung metastatic nodules from animals that received just PBS or B16F10 cells alone or together with 0.1 mg/kg or 1 mg/kg Psd1. Bar = 2 mm. (C) Animal weights were acquired every two days. Weight variation was calculated as (weight on that day (weight of the first day × 100 − 100)). Only the days with higher weight differences between animals injected with only B16F10 cells and those that received cells plus Psd1 or PBS alone are represented. All of the values represent the mean ± SEM of two independent experiments analyzed by two-way ANOVA. *** p < 0.001 B16F10 vs. PBS at […]; *** p < 0.001 B16F10 vs. Psd1 0.1 mg/kg at 9 weeks; ** p < 0.01 B16F10 vs. Psd1 0.1 mg/kg at 13 weeks; *** p < 0.001 B16F10 vs. Psd1 1 mg/kg at 9 and 13 weeks; ** p < 0.01 B16F10 vs. Psd1 1 mg/kg at 17 weeks; * p < 0.05 B16F10 vs. Psd1 1 mg/kg at 7 weeks; *** p < 0.001 B16F10 vs. Psd1 3 mg/kg at 7 and 9 weeks.
# Eight-week-old C57BL/6 female mice (CEMIB, Campinas–Brasil) weighing approximately 20 g were individually marked and separated according to their experimental groups. These animals were kept in cages 20 cm × 35 cm × 15 cm (width × length × height) with free access to water and food under day and night cycles that lasted twelve hours with a controlled temperature (20–25 °C) in our own facilities. This study was approved by the Ethics Committee on the Use of Animals of Health Science Centre of the Federal University of Rio de Janeiro, Brazil (CEUA/CCS/UFRJ, CONCEA registered number 01200.001568/2013.87, approved protocol IBCCF 163 at 28 August 2012). All animals received humane care in compliance with the “Principles of Laboratory Animal Care” formulated by the National Society for Medical Research and the “Guide for the Care and Use of Laboratory Animals” prepared by the National Academy of Sciences, USA, and the National Council for Controlling Animal Experimentation, Ministry of Science, Technology and Innovation (CONCEA/MCTI), Brazil.
# Mice were injected via the lateral tail vein with 100 µL of PBS only (137 mM NaCl, 2.7 mM KCl, 10 mM Na2HPO4, 2 mM KH2PO4, pH 7.4) (n = 17) or 100 µL of B16F10 cells (2.5 × 10^5 cells/animal suspended in DMEM) (n = 15). Other groups of animals were intravenously co-injected with a freshly prepared, in order to avoid B16F10 cells death, mix of B16F10 cells plus 0.1 mg/kg (n = 8), 0.5 mg/kg (n = 8), 1 mg/kg (n = 17), or 3 mg/kg Psd1 (n = 7).
# Another group of animals received 1 mg/kg of Psd1 only (n = 9) to evaluate Psd1 toxicity. Twenty-one days later, the animals were anaesthetized and sacrificed, and the black lung melanoma nodules were counted and measured under a dissecting microscope (Zeiss AxioPhot fluorescence microscope (Carl-Zeiss, Oberkochen, Germany)).
# B16F10 cells = assay: Flow cytometry-based apoptosis detection (sub-G0/G1 DNA content); assay type: cell-based, murine; details: 50 µM, 24 h, propidium iodide; control Sub-G1 4.4%
# Experimental: Figure 2 Psd1 promotes B16F10 live cell membrane permeabilization as monitored by SYTOX Green fluorescence. (A) Psd1 untreated and hydrogen peroxide-treated B16F10 cells. (B) A total of 1.5 × 10^4 B16F10 cells were incubated with 3 or 50 µM Psd1 for 30 min. (C) 1.5 × 10^4 B16F10 cells were incubated with 50 µM Psd1 for 1 h. All experiments were performed at 37 °C. Nucleus staining is shown in green (SYTOXGreen), and mitochondria are shown in red (MitoTracker Red CMXRos). Images are shown at 20× magnification. […] (E) Psd1 induces apoptosis in B16F10 cells. B16F10 cells were treated with 50 µM Psd1 for 24 h and labeled with propidium iodide, and the DNA content was analyzed by flow cytometry for the sub-G0/G1 profile. At least two independent experiments were performed. TEXT PRINTED IN THE PICTURE: (E) Control: Sub-G1: 4.4% | (E) Psd1: Sub-G1: 60.6% (50μM)
# B16F10 cells (4 × 10^5 cells) were treated with 50 μM Psd1 for 24 h. After treatment, the cells were trypsinized, centrifuged, and washed twice with phosphate-buffered saline (PBS). The cells were then stained with Nicoletti buffer (0.1% sodium citrate, 0.1% NP-40, 200 μg/mL RNase, and 50 μg/mL propidium iodide). Doublets and debris were identified and excluded. Analysis of the DNA content was performed by collecting 20,000 events using a BD FACSCalibur flow cytometer (BD Biosciences, San Jose, CA, USA). […]
substance,measurement,setting,value
"Psd1: 46-amino acid residue plant defensin isolated from pea seeds, expressed in Pichia pastoris (PDB 1JKZ) (KTCEHLADTYRGVCFTNASCDDHCKNKAHLISGTCHNWKCFCTQNC)","Number of lung nodules, result in words","[1]; 0.1 mg/kg i.v., day 21",not effective in reducing the number of nodules
same,"Size of lung nodules, result in words","[1]; 0.1 mg/kg i.v., day 21, data not shown",effective in reducing their size
same,Lung nodules,"[1]; 0.5 mg/kg i.v. co-injected with B16F10 cells, B16F10 only average 43 nodules, p < 0.05",10.2 ± 2.6 nodules
same,Decrease of number of pulmonary nodules,"[1]; 0.5 mg/kg i.v., day 21",75%
same,Lung nodules in animals without B16F10 cells,"[1]; 1.0 mg/kg Psd1 alone, i.v., day 21",did not present lung nodules
same,Lung nodules,"[1]; 1.0 mg/kg i.v. co-injected with B16F10 cells, p < 0.0001",4.82 ± 1.88 nodules
same,Decrease of number of pulmonary nodules,"[1]; 1.0 mg/kg i.v., day 21",88%
same,Lung nodules,"[1]; 3.0 mg/kg i.v. co-injected with B16F10 cells, p < 0.001",0.14 ± 0.14 nodules
same,"Tumor development, result in words","[1]; 3.0 mg/kg i.v., day 21",completely abolished tumor development
same,"Lung metastasis nodules, result in words","[1]; i.v., above 0.5 mg/kg",completely inhibited the formation of B16F10 lung metastasis nodules
same,Lowest dose with significant reduction of lung metastasis colonization,"[1]; i.v., day 21, dose-dependent",0.5 mg/kg
same,Sub-G0/G1 (sub-G1) cells,B16F10 cells,60.6%
